Experimental data taken from patent US5422352A, “Slimming pharmaceutical composition” (Nycomed Dak A/S, priority 1989, dated 1995).
Counter-ions that a name gives are not always drawn.

Columns and labels:
[1] = weight reducing effect in obese patients, 24 weeks, double blind (Example 5); assay type: in vivo, human
Description: The study was designed as a double blind, randomised, parallel study with 4 treatment groups in a 2×2 factorial design.
All patients were treated with the trial medication and prescribed a 4.2 MJ/day diet for 24 weeks.
B. Ephedrine group: Ephedrine tablets containing 20 mg ephedrine hydrochloride.
C. Caffeine group: Caffeine tablets containing 200 mg caffeine.
The patients were prescribed 1 tablet 3 times daily one hour before meals together with a 4.2 MJ/day diet consisting of NUPO® protein nutrition powder (33) (1.6 MJ/day) and free additional choice of food (2.6 MJ/day) for 24 weeks.
The patients were weighed on a decimal scale by dietitians at each visit. A Seca electronic scale (model 707) was used. The weighing limit was 200 kg, with 100 g graduations. The scale was calibrated every week.
The statistical analysis of weight loss was based on the logarithm of the initial body weight minus logarithm of the body weight at the actual visit.
As the data was logarithmically transformed as expressed above, a negative value corresponds to a supra-additive effect. Nil corresponds to additive effect and a positive value corresponds to a sub-additive effect.

[2] = thermogenic effect: energy expenditure in healthy volunteers by indirect calorimetry (Example 2); assay type: in vivo, human; conditions: for Mean energy expenditure during 3 hours: oral single dose, not placebo-corrected; for Energy expenditure greater than placebo: mean±SE, minimum figure; for thermogenic effect (in words): human, in vivo
Description: The study was conducted in two parts. The first part was designed as a placebo-controlled, double-blind trial on the effect of 3 different doses of caffeine, 3 different doses of ephedrine and 2 placebo samples. The order of the tests were not entirely randomized, but organized in a sequence that allowed testing for a carry-over effect.
6 healthy volunteers of normal weight (3 of each sex) aged between 20 and 32 were included after informed consent was obtained. The average age of the 6 volunteers was 25 (±1) years, height, 179 (±11) cm; body weight, 70 (±13) kg; percentage of overweight, -1.7 (±8.3) % and body fat, 13 (±3) kg. The numbers in parenthesis are the standard deviation. The percentages of overweight was calculated from the individual body weight (IBW) using the midpoint of the medium frame (MMF) given in the Metropolitan Life Insurance Company tables of desirable weights (1): [formula]
A. Treatment with ephedrine comprising capsules with 10 mg, 20 mg or 40 mg of ephedrine hydrochloride, respectively.
B. Treatment with caffeine comprising capsules with 100 mg, 200 mg or 400 mg of caffeine, respectively. […]
The capsules were administered orally as single doses and swallowed with 300 ml of tap water (20° C.).
All blood samples for determination of substrate, metabolite and hormone concentrations were collected form the antecubital vein. Blood samples were taken at -30, 0, 30, 60, 90, 120, 150 and 180 minutes relative to the capsule intake (time 0). The subjects breathed through a low-resistance Scuba one-way mouthpiece. After about 10 minutes of adaptation, expiratory gas was collected in Douglas bags for 10 minute periods. Gas collection was made after each blood sampling.
Energy expenditure was measured by indirect calorimetry. Expiratory gas was continuously analyzed for the content of oxygen and carbon dioxide with a Godart Rapox Oxygenmeter and a Beckman LB-1 Medical Gas Analyzer. Respiratory steady state was assumed to be present, when the end-expiratory carbon dioxide fraction was constant. Expiratory gas was collected in Douglas bags and analyzed for the content of oxygen and carbon dioxide with Radiometer gas-electrodes connected to an acid-base analyzer (PHM 71, Copenhagen, Denmark), and the volume of expiration gas was measured with a gas meter. […] The standard gasses were analyzed with a Scholander microtechnique with a measuring error on gas fraction being <0.0005%, i.e. the error on measurement of expired gas being within ±0.1-0.2% (19). […] A fixed protein catabolism was assumed, since the error on calculating the energy expenditure by omitting the exact correction from urinary nitrogen was negligible (20). The energy expenditure was calculated taking de novo lipogenesis into account (21).
The responses to a test substance were estimated separately for each subject as the difference between the integrated numerical area of the response curve (by a trapezoidal approach) and the rectangular area determined by the basal values. To estimate the predictive, theoretical effect of combinations of ephedrine and caffeine, the single dose responses were added after subtracting the average placebo response. This calculation was performed separately for each subject before statistical analysis. A two-way analysis of variance for randomized blocks was performed (28) to test differences between experimental periods within the same experiment and to test differences between the responses to different stimuli (test substances). Post-hoc testing was applied to compare two means (28).

[3] = safety evaluation in healthy volunteers: side effects, blood pressure, heart rate (Example 2); assay type: in vivo, human
Description: Arterial blood pressure was measured in the right arm by a sphygmomanometer a.m. Riva-Rocci, and heart rate was determined by palpation of the peripheral heart rate in the ipsilateral radial artery. These measurements were performed after each sampling of blood.
A "Trimline" apparatus manufactured by PyMaH (Copenhagen) was used to measure the arterial blood pressure. A cuff 12-14 cm in width was employed. […] The diastolic blood pressure was determined as the manometer pressure when the Korotkoff sound quality changes from tapping to muffled.
At the end of each study comprising oral administration of the actual test substance, subjective feelings of side-effects were assessed by questioning the experimental subjects.

[4] = laboratory methods in healthy volunteers: serum glucose, NEFA, glycerol (Example 2); assay type: in vivo, human; conditions: oral; for serum glucose (in words): vs placebo
Description: Through the indwelling antecubital cannula, blood was sampled without stasis in iced syringes. The blood samples were then centrifuged at 4° C. and nonesterified fatty acids (NEFA) were immediately extracted from the blood samples and later determined as described in (22). The concentration of glucose in plasma was determined using the glucose oxidase method (23), the concentration of glycerol in plasma was determined as described by Laurell and Tibbling (24), the concentration of lactate in plasma was described using the method described by Noll (25), and the concentration of triglyceride in plasma was determined as described by Giegel (26). Blood samples for the determination of methylxanthine metabolites was collected in tubes containing reduced glutathione and ethylene glycol-bis(β-aminoethyl)-N,N,N',N'-tetraacetic acid (EGTA). Samples were immediately centrifuged and the plasma was stored at -40° C. until the determination of methylxanthines was performed (see Example 4). Immunoreactive insulin, pancreatic glucagon and C-peptide concentrations were measured in the plasma samples using radioimmunoassay kits purchased from Novo, Copenhagen. All plasma aliquots for determination of pancreatic hormones and methylxanthine metabolites were coded and analyzed in a random order to avoid any systematic error due to the order of analysis. The concentrations of sodium and potassium in the plasma samples were determined by flame spectrophotometry.

[5] = adverse drug reactions in obese patients, 24 weeks (Example 5); assay type: in vivo, human; conditions: for Patients complaining of adverse drug reactions / Patients withdrawn due to adverse drug reactions: 24 weeks; for adverse reactions / withdrawal symptoms (in words): human, in vivo
Text: 14 days after discontinuation of the treatment, a psychiatrist recorded any inconveniences the patient might have had during this period and physical and psychological symptoms were registered.

[6] = blood pressure and heart rate in obese patients, 24 weeks (Example 5); assay type: in vivo, human; conditions: week 24; for Average heart rate decrease / Average heart rate decrease, % of initial value: negative = increase
Description: Blood pressure was measured with a Trimline Sphygmomanometer (PyMaH) by the investigator every 4 weeks. After at least 10 minutes rest, the measurements were carried out in the right arm of the patient a.m. Riva-Rocci with the patient being positioned in a sitting position. A cuff of 14 to 16 cm width was employed. […] The diastolic blood pressure was determined at the manometer pressure when the Korotkoff sound quality changes from tapping to muffled.
The heart rate was determined by palpation of the peripheral heart rate in the right radial artery.
(§1) The mean difference of blood pressure, heart rate and laboratory data from the initial values (week 0) at week 12 and at week 24 was compared to initial values for each treatment group by Students' one sample t-test (SAS). Comparison of the treatment groups at a particular visit was done by one-way analysis of variance (SAS.GLM). The difference from initial values was used in order to prevent chance events influencing the results. Patients with high values, for instance, who dropped out would thus influence the mean value at the next control, without a real difference being present.

[7] = laboratory methods: fasting serum glucose, triglycerides, cholesterol in obese patients (Example 5); assay type: in vivo, human
Description: Blood and urine samples for laboratory tests were taken before entry, and after 12 and 24 weeks.
Metabolic factors: In order to evaluate changes in the glucose and lipid metabolism of the patients during the study, triglyceride acid (TGA), cholesterol and fasting glucose were analyzed.
All clinical-chemical analyses apart from TGA and test strips for urine, were carried out at Department of Clinical Chemistry, Hvidovre Hospital, in accordance with their routine methods and assays, including the department's running quality control. The methods and the assays are routine procedures and are well-documented (7,40-48). TGA was analyzed and test strips for urine assessed at the Department of Internal Medicine, Division of Endocrinology, Hvidovre Hospital's own laboratory following the same routine procedures as above (26).
as §1

[8] = ephedrine 50 mg; ephedrine plus caffeine 50 mg+100 mg; oral, 4 months; cited from earlier work
resting skeletal muscle = conditions: in vivo; cited from earlier work
[9] = 18 weeks, 2+2+1 tablet per day; cited from earlier work
[10] = 3 ppm (3 mg/kg feed); cited from earlier work
[11] = week 12, difference from initial
[12] = week 24, difference from initial

Structure (SMILES)	thermogenic effect (in words) [2]	serum nonesterified fatty acids and glycerol (in words) [4]	serum glucose (in words) [4]	Patients complaining of adverse drug reactions [5] [patients]	Patients withdrawn due to adverse drug reactions [5]	adverse reactions / withdrawal symptoms (in words) [5]	Average diastolic blood pressure decrease [6] [mmHg]	Average diastolic blood pressure decrease, % of initial value [6] [%]	Average systolic blood pressure decrease [6] [mmHg]	Average systolic blood pressure decrease, % of initial value [6] [%]	Average heart rate decrease [6] [BPM]	Average heart rate decrease, % of initial value [6] [%]	Mean difference in fasting serum glucose [7, 11] [mmol/L]	Mean difference in serum triglycerides [7, 11] [mmol/L]	Mean difference in fasting serum cholesterol [7, 12] [mmol/L]	Mean difference in fasting serum glucose [7, 12] [mmol/L]	Mean difference in serum triglycerides [7, 12] [mmol/L]	further results
Cn1c(=O)c2c(ncn2C)n(C)c1=O [Caffeine, caffeine]	a significant relation between caffeine dose and thermogenic response (energy expenditure)	increased the concentrations of NEFA and glycerol in the serum	hyperglycemic effect	16	2	Headache was reported by 27 patients, especially patients from the caffeine group	8.9	11.0	9.3	7.3	5.7	7.3	-0.18	-0.11	-0.28	-0.42	-0.32	Average weight loss of the whole group ([1]; 24 weeks): 11.7 kg; Weight loss of one strongly deviant patient ([1]; 24 weeks, excluded from analysis): 42.6 kg; Relative body weight ([1]; week 4, 1 tablet 3 times daily, 4.2 MJ/day diet): 95.5%; Relative body weight ([1]; week 8): 93.0%; Relative body weight ([1]; week 12): 90.4%; Relative body weight ([1]; week 16): 89.3%; Relative body weight ([1]; week 20): 88.0%; Relative body weight ([1]; week 24): 87.6%; Energy expenditure/(placebo value) ([2]; 100 mg caffeine): 2.5; Mean energy expenditure during 3 hours ([2]; 100 mg caffeine): 15.4 kcal/3 h; Energy expenditure greater than placebo ([2]; 100 mg caffeine): 9.2±5.7 kcal/3 h; Energy expenditure/(placebo value) ([2]; 200 mg caffeine): 2.2; Mean energy expenditure during 3 hours ([2]; 200 mg caffeine): 13.4 kcal/3 h; Energy expenditure greater than placebo ([2]; 200 mg caffeine): 7.2±6.0 kcal/3 h; Energy expenditure/(placebo value) ([2]; 400 mg caffeine): 6.2; Mean energy expenditure during 3 hours ([2]; 400 mg caffeine): 38.6 kcal/3 h; Energy expenditure greater than placebo ([2]; 400 mg caffeine): 32.4±8.2 kcal/3 h; thermogenic effect (in words) ([2]; listed as caffeine): possess thermogenic activity; side effects (in words) ([3]; 400 mg caffeine): The incidence of side effects after administration of the active compounds and placebo, respectively, was not significant, except for caffeine 400 mg (p<0.01)
CN[C@@H](C)[C@H](O)c1ccccc1 [Ephedrine, ephedrine hydrochloride]	possess thermogenic activity	increased the concentrations of NEFA and glycerol in the serum	hyperglycemic effect	20	1	34 patient complained of hunger, especially those who had been treated with ephedrine	6.9	8.6	8.7	7.0	-3.1	-4.3	-0.55	-0.14	-0.18	-0.46	-0.66	weight loss (in words) [8]: no significant difference in weight loss; Energy expenditure/(placebo value) ([2]; 10 mg ephedrine hydrochloride): 3.5; Mean energy expenditure during 3 hours ([2]; 10 mg ephedrine hydrochloride): 22.2 kcal/3 h; Energy expenditure greater than placebo ([2]; 10 mg ephedrine hydrochloride): 16.0±10.9 kcal/3 h; Energy expenditure/(placebo value) ([2]; 20 mg ephedrine hydrochloride): 2.0; Mean energy expenditure during 3 hours ([2]; 20 mg ephedrine hydrochloride): 12.5 kcal/3 h; Energy expenditure greater than placebo ([2]; 20 mg ephedrine hydrochloride): 6.3±5.3 kcal/3 h; Energy expenditure/(placebo value) ([2]; 40 mg ephedrine hydrochloride): 3.0; Mean energy expenditure during 3 hours ([2]; 40 mg ephedrine hydrochloride): 18.3 kcal/3 h; Energy expenditure greater than placebo ([2]; 40 mg ephedrine hydrochloride): 12.1±4.9 kcal/3 h; contribution of resting skeletal muscle to whole body thermogenesis induced (resting skeletal muscle): at least 50%; systolic blood pressure and heart rate (in words) ([3]; 40 mg ephedrine hydrochloride): excessive increase in systolic blood pressure and heart rate; average weight loss [9]: 7.9 kg
CC(C)(C)NCC(O)c1ccc(O)c(CO)c1 (stereo not shown) [salbutamol]																		fat and protein accretion (in words) [10]: decreases fat accretion and increases protein accretion in growing pigs
